Where two headings read alike, the source gives them in different places.
What was measured:
A2A adenosine receptors = A2A adenosine receptors (Sus scrofa, UniProt K9IW67); experiment: Competitive radioligand binding, [3H]ZM241385, pig striatum membranes
Method: Membranes were also obtained from porcine striatial cells as follows. […] The homogenate was filtered through cotton gauze and centrifuged at 48,000g for 15 minutes at 4° C. […] The final pellet was frozen at −80° C. until used for receptor binding assays.

[1] = Coronary and peripheral artery blood flow velocity, HR and MAP in anesthetized closed-chest dogs; type: in vivo; parameters: APV: unit not given here; conditions: for APV / MAP / HR: CVT-3146 (1 ug/kg)
Method: Mongrel dogs (either sex, 17-21 kg; n=6) were obtained from a local vendor (Barton, Oxford, N.J.). Blood flow velocity in the coronary and cranial circumflex arteries was measured using Doppler transducer-tipped guide wires 0.014″ in diameter (FloWire®, model 1400J) purchased from Cardiometrics, Inc., Mountain View, Calif. For the positioning of the FloWire, a Judkins left coronary guiding catheter (JL3.5, 8F; Cordis) was used. Vascular arterial angiography was performed using Hypaque-76 contrast fluid (Bracco Diagnostics, Inc., Princeton, N.J.; Lot #9H28899) and a mobile fluoroscopic unit (Philips, BV 29). Systemic arterial blood pressure was measured using an electronic transducer-tipped catheter (Millar).
Following the administration of heparin (20 U/kg+100 U/hr), the pressure transducer-tipped catheter was introduced through the left femoral artery and positioned in the descending aorta. The Doppler FloWire was introduced through the right femoral artery. A peripheral vein was cannulated for the administration of all drugs. […] The sequence of positioning of the Doppler catheter was reversed in consecutive experiments. […] All parameters were allowed to recover (>30 min) to their respective baseline values between two consecutive drug administrations. […] The effect of adenosine on both coronary and peripheral artery APV was studied in five of the six dogs.
The following parameters were monitored and recorded: Average peak coronary and peripheral artery blood flow velocity (APV), mean arterial blood pressure (MAP) (mmHg), and sinus cycle length (SCL; msec). Differences in measure parameters were tested for statistical significance using ANOVA and Student's t test corrected for multiple measurements. Data are expressed as the mean±SEM.

[2] = tested on: rat isolated perfused heart; experiment: Coronary conductance / coronary perfusion pressure in isolated perfused rat hearts; conditions: for EC50: Rattus norvegicus

Sequence of A2A adenosine receptors (K9IW67 1-409): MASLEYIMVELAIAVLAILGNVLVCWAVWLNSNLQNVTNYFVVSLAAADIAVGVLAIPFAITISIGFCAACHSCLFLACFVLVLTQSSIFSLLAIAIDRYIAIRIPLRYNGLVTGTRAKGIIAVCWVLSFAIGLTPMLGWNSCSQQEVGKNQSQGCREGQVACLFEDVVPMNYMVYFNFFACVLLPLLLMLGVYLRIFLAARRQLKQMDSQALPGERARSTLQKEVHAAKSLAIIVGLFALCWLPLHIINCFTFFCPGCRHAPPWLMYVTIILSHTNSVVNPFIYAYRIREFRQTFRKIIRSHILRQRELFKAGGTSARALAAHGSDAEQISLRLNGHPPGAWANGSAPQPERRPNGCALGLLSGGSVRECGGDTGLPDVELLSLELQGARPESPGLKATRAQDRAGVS

In the case of `CNC(=O)c1cnn(-c2nc(N)c3ncn(C4O[C@@H](CO)[C@H](O)[C@@H]4O)c3n2)c1` (stereo partly shown) [CVT-3146], the Ki (A2A adenosine receptors; [3H]ZM241385, Gpp(NH)p present, read-out: pKi ± SEM, Pig Strialum (A2A) (converted)) is reported as 1120 nM, the Ki (A2A adenosine receptors; read-out: binding affinity to A2A receptors in pig striatum (Ki)) is reported as 1100 nM and the “time for all parameters to return to baseline post injection” value ([1]; CVT-3146 1 μg/kg, adenosine 200 or 300 μg/kg iv bolus, anesthetized dogs) is reported as at most 5 min. For the same molecule, the APV ([1]; Coronary, time 1′, Baseline 49 ± 7) was 100 ± 12, the MAP ([1]; Coronary, time 1′, Baseline 128 ± 7) was 112 ± 7 mmHg and the HR ([1]; Coronary, time 1′, Baseline 171 ± 8) was 186 ± 7. It also gave an APV ([1]; Coronary, time 1.5′, Baseline 49 ± 7) of 97 ± 11, an MAP ([1]; Coronary, time 1.5′, Baseline 128 ± 7) of 110 ± 7 mmHg and an HR ([1]; Coronary, time 1.5′, Baseline 171 ± 8) of 186 ± 7. For the same molecule, the APV ([1]; Coronary, time 2′, Baseline 49 ± 7) was 88 ± 11, the MAP ([1]; Coronary, time 2′, Baseline 128 ± 7) was 110 ± 7 mmHg and the HR ([1]; Coronary, time 2′, Baseline 171 ± 8) was 185 ± 7. For the same molecule, the APV ([1]; Coronary, time 3′, Baseline 49 ± 7) was 81 ± 11, the MAP ([1]; Coronary, time 3′, Baseline 128 ± 7) was 110 ± 6 mmHg and the HR ([1]; Coronary, time 3′, Baseline 171 ± 8) was 185 ± 7. It also gave an APV ([1]; Coronary, time 4′, Baseline 49 ± 7) of 75 ± 11, an MAP ([1]; Coronary, time 4′, Baseline 128 ± 7) of 110 ± 6 mmHg and an HR ([1]; Coronary, time 4′, Baseline 171 ± 8) of 183 ± 8. For the same molecule, the APV ([1]; Coronary, time 5′, Baseline 49 ± 7) was 72 ± 11, the MAP ([1]; Coronary, time 5′, Baseline 128 ± 7) was 112 ± 6 mmHg and the HR ([1]; Coronary, time 5′, Baseline 171 ± 8) was 183 ± 8. The APV ([1]; Coronary, time 6′, Baseline 49 ± 7) was 65 ± 11, the MAP ([1]; Coronary, time 6′, Baseline 128 ± 7) was 113 ± 6 mmHg and the HR ([1]; Coronary, time 6′, Baseline 171 ± 8) was 182 ± 8. The APV ([1]; Coronary, time 7′, Baseline 49 ± 7) was 63 ± 12, the MAP ([1]; Coronary, time 7′, Baseline 128 ± 7) was 115 ± 6 mmHg and the HR ([1]; Coronary, time 7′, Baseline 171 ± 8) was 181 ± 8. The APV ([1]; Coronary, time 8′, Baseline 49 ± 7) was 55 ± 11, the MAP ([1]; Coronary, time 8′, Baseline 128 ± 7) was 117 ± 6 mmHg and the HR ([1]; Coronary, time 8′, Baseline 171 ± 8) was 180 ± 8. It also gave an APV ([1]; Coronary, time 9′, Baseline 49 ± 7) of 55 ± 11, an MAP ([1]; Coronary, time 9′, Baseline 128 ± 7) of 119 ± 6 mmHg and an HR ([1]; Coronary, time 9′, Baseline 171 ± 8) of 177 ± 9. For the same molecule, the APV ([1]; Coronary, time 10′, Baseline 49 ± 7) was 53 ± 11, the MAP ([1]; Coronary, time 10′, Baseline 128 ± 7) was 120 ± 6 mmHg and the HR ([1]; Coronary, time 10′, Baseline 171 ± 8) was 176 ± 9. It also gave an APV ([1]; Coronary, time 10″, Baseline 49 ± 7) of 84 ± 4, an HR ([1]; Coronary, time 10″, Baseline 171 ± 8) of 177 ± 8 and an APV ([1]; Coronary, time 20″, Baseline 49 ± 7) of 106 ± 8. It also gave an MAP ([1]; Coronary, time 20″, Baseline 128 ± 7) of 116 ± 9 mmHg, an HR ([1]; Coronary, time 20″, Baseline 171 ± 8) of 186 ± 9 and an APV ([1]; Coronary, time 30″, Baseline 49 ± 7) of 109 ± 10. It also gave an MAP ([1]; Coronary, time 30″, Baseline 128 ± 7) of 117 ± 7 mmHg, an HR ([1]; Coronary, time 30″, Baseline 171 ± 8) of 188 ± 7 and an APV ([1]; Peripheral, time 1′, Baseline 34 ± 8) of 42 ± 4. The MAP ([1]; Peripheral, time 1′, Baseline 116 ± 8) was 102 ± 6 mmHg, the HR ([1]; Peripheral, time 1′, Baseline 162 ± 9) was 182 ± 7 and the APV ([1]; Peripheral, time 1.5′, Baseline 34 ± 8) was 42 ± 4. For the same molecule, the MAP ([1]; Peripheral, time 1.5′, Baseline 116 ± 8) was 99 ± 7 mmHg, the HR ([1]; Peripheral, time 1.5′, Baseline 162 ± 9) was 184 ± 7 and the APV ([1]; Peripheral, time 2′, Baseline 34 ± 8) was 40 ± 4. For the same molecule, the MAP ([1]; Peripheral, time 2′, Baseline 116 ± 8) was 98 ± 7 mmHg, the HR ([1]; Peripheral, time 2′, Baseline 162 ± 9) was 187 ± 8 and the APV ([1]; Peripheral, time 3′, Baseline 34 ± 8) was 40 ± 4. The MAP ([1]; Peripheral, time 3′, Baseline 116 ± 8) was 97 ± 7 mmHg, the HR ([1]; Peripheral, time 3′, Baseline 162 ± 9) was 187 ± 8 and the APV ([1]; Peripheral, time 4′, Baseline 34 ± 8) was 39 ± 4. For the same molecule, the MAP ([1]; Peripheral, time 4′, Baseline 116 ± 8) was 100 ± 6 mmHg, the HR ([1]; Peripheral, time 4′, Baseline 162 ± 9) was 186 ± 8 and the APV ([1]; Peripheral, time 5′, Baseline 34 ± 8) was 37 ± 5. The MAP ([1]; Peripheral, time 5′, Baseline 116 ± 8) was 101 ± 6 mmHg, the HR ([1]; Peripheral, time 5′, Baseline 162 ± 9) was 185 ± 8 and the APV ([1]; Peripheral, time 10″, Baseline 34 ± 8) was 34 ± 4. It also gave an MAP ([1]; Peripheral, time 10″, Baseline 116 ± 8) of 114 ± 9 mmHg, an HR ([1]; Peripheral, time 10″, Baseline 162 ± 9) of 167 ± 6 and an APV ([1]; Peripheral, time 20″, Baseline 34 ± 8) of 38 ± 4. It also gave an MAP ([1]; Peripheral, time 20″, Baseline 116 ± 8) of 107 ± 8 mmHg, an HR ([1]; Peripheral, time 20″, Baseline 162 ± 9) of 177 ± 7 and an APV ([1]; Peripheral, time 30″, Baseline 34 ± 8) of 41 ± 4. The MAP ([1]; Peripheral, time 30″, Baseline 116 ± 8) was 111 ± 6 mmHg, the HR ([1]; Peripheral, time 30″, Baseline 162 ± 9) was 183 ± 8 and the “decrease in coronary perfusion pressure” value ([2]; 10 nM, isolated rat heart) was 23 mmHg. For the same molecule, the “effect of 60 nM CPX (A1 antagonist) on the increase in coronary conductance” value ([2]; CVT-3146 10 nM) was “not affected”, the “effect of 60 nM ZM241385 (A2a antagonist) on the increase in coronary conductance” value ([2]; CVT-3146 10 nM) was “completely reversed” and the coronary conductance ([2]; CVT-3146 10 nM, baseline 0.16±0.02, n=6 hearts) was 0.22±0.01 ml mm Hg−1 min−1. For the same molecule, the EC50 ([2]; read-out: EC50, Coronary Conductance (Rat Isolated Heart)) was 6.4 nM, the EC50 ([2]; read-out: pEC50 ± SEM, Coronary Conductance (Rat Isolated Heart) (converted)) was 6.46 nM and the “agonist behaviour with respect to coronary artery conductance” value ([2]; isolated rat heart) was “full agonist”. The “effect on coronary conductance” value ([2]; isolated rat hearts, in words) was “increased coronary conductance in a concentration-dependent manner”.

From US20050175535A1 (CV Therapeutics, Inc., priority 2000, published 2005)
